Experimental data reported in patent US5219867A, “Platelet aggregation inhibitory agents” (priority 1992, dated 1993).
Where a name gives a salt, the structure may show the parent alone. Read-outs that look alike come from different tables or passages of the source.

Tests used:
Type in all cases: cell-based
human blood platelets = assay: In vitro inhibition of ADP-induced human platelet aggregation (platelet-rich plasma, aggregometer)
Procedure: Procedure for Determining In Vitro Platelet Aggregation-Inhibitory Activity. Adenosine diphosphate (ADP) was used to induce platelet aggregation and was utilized as the sodium salt. A 10 mM stock solution was prepared fresh before each use in modified Tyrode's buffer and working dilutions were prepared with modified Tyrode's buffer immediately prior to use. The buffer contained NaCl (137.00 mM), KCl (2.70 mM), NaHCO3 (11.90 mM), NaH2 PO4 H2 O (0.36 mM) and glucose (5.60 mM) in redistilled water. Adjustment to pH 7.4 was effected by addition of 1N HCl.
The blood was transferred into plastic centrifuge tubes containing 3.2% sodium citrate (blood/citrate ratio 8:1) and centrifuged at 120Xg for 15 minutes at 23° C., yielding platelet-rich plasma (PRP); platelet-poor-plasma (PPP) was obtained by centrifugation of citrated whole blood at 1,100Xg for 15 min at 23° C. The platelet count of PRP was determined and adjusted to a final count of 300,000 platelet per mm^3 by dilution with autologous PPP. […] The plasma so obtained was transferred using a 1.0 ml Centaur pipette into a 50 ml polyethylene centrifuge tube. In order to maintain plasma pH in the appropriate range, the air in the tubes are displaced gently (2 minutes) with a 5% (CO2 -95% air (v/v) mixture and the tube capped. The plasma was maintained at 37° C. in a water bath until used in the aggregation experiments.
Assays of platelet aggregation were performed at least in duplicate, using plasma acquired from different donors, employing a method developed by Quintana, et al. (Quintana, et al., Relationships Between the Chemical Constitution of Carbamoylpiperidines and Related Compounds, and Their Inhibition of ADP-Induced Human Blood Platelet Aggregation, Thromb. Res. Vol. 22, Pages 665-680, 1981); Quintana, et al., Effects of Ethanol and of Other Factors on ADP-Induced Aggregation of Human Blood Platelets in Vitro, Thromb. Res., Vol. 20, Pages 405-415, 1980) (cf. Born, Nature, Vol. 194, Pages 927-929, 1962) and Mustard, et al., J. Lab. Clin. Med., Vol. 64, Pages 548-559, 1964).
Initially, in each experiment, 0.45-ml aliquots of PRP were placed in siliconized cuvettes and stirred (1,100 rpm) in the aggregometer at 37° C. to ascertain the absence of spontaneous aggregation. Appropriate ADP solutions (50 μl) were subsequently injected using a Hamilton microliter syringe to determine the minimal concentration eliciting maximal biphasic aggregation. […] In each case, the concentration of ADP so determined was used in eliciting aggregation throughout each specific set of aggregometric evaluations.
0.5 μl of a solution of the evaluant compound in redistilled 95% ethanol was injected into a stirred ([…]) 0.4-ml aliquot of plasma in a siliconized cuvette in the aggregometer-well (37° C). After 15 seconds, the cuvette was transferred to an incubator (also at 37° C.) and the contents held at this temperature, without stirring, until 2 minutes postinjection. The cuvette was then returned to the aggregometer-well, a base-line being recorded for 2 minutes to detect any spontaneous aggregation. At exactly 4 minutes after injection of the evaluant solution, 50 μl of the appropriate ADP solution was injected and aggregation recorded for 5.5 minutes. Evaluants were studied at least 4 different concentrations. Control experiments (ethanol in a final concentration of 0.095% v/v) were performed in conditions parallel with those involving the respective evaluants, and were initiated either 1 minute prior to or 1 minute after the start of experiments employing the test compounds. This permitted injections to be made precisely at the specified times.

human platelets = assay: Inhibition of collagen-induced aggregation, washed aequorin-loaded platelet suspension; settings: Homo sapiens, Platelet; collagen-induced aggregation (n = 4); HEPES-buffered saline, 1.0 mM CaCl2; read-out: Ia50 ± S.E. Collagen-induced
Procedure: (§1) Procedure for Cytosolic Ionized Calcium Determination. The basic procedure of Yamaguchi, et al. (Thromb. Res., Vol. 44, Pages 165-174, 1986) was followed. Blood was collected from six blood donors, aged 24-38 years, who had fasted overnight and affirmed abstinence from alcohol, caffeine and medications of any kind for a period of at least one week prior to donation. […] Platelets were collected (800 g, 15 min), resuspended in and washed (800 g, 15 min) with HEPES-buffered saline (140 mM NaCl, 2.7 mM KCl, 0.1% bovine albumin, 0.5% glucose, 3.8 mM HEPES, pH 7.6) with EGTA (5 mM) and PGE1 (1 μM). The platelet pellet was resuspended in 90 μl of the same buffer and added to 20μl of 3 mg/ml aequorin solution in a 1.5 ml Eppendorf centrifuge tube. Six 1 μl aliquots of DMSO were added at 90 second intervals with brief, gentle mixing on a Vortex mixer and the platelet suspension was incubated 2 minutes after the last addition. One ml of HEPES-buffered saline was added, gently mixed, and again incubated for 2 minutes. The platelets were pelleted (1000 g, 30 sec), resuspended in HEPES-buffered saline to which was added either 1 mM Mg Cl2, (calcium-free buffer) or 1 mM Mg Cl2 and 1 mM Ca Cl2 (calcium buffer), depending on the experiment. The platelet count was adjusted to 3-4×10^5 platelets/μl.
(§2) The Platelet Ionized Calcium Aggregometer (Chrono-Log Corp., Ltd., Havertown, Pa.) was used to obtain simultaneous aggregation and luminescence data under the following experimental conditions: (1) platelet suspension, 1 ml, was equilibrated at 37° C. with stirring at 1100 rpm; (2) 100 μl (1.2 μg) of fibrinogen was added; (3) the vehicle (95% ethanol) or the test compound in vehicle was added; (4) when needed, 10 μl of the desired concentration of EGTA was added 30 seconds prior to addition of the agonist; then (5) the agonist (Collagen, 5 μg or 20 μg) was added and the time noted. At one minute after addition of the agonist in Channel 1, a platelet sample containing fibrinogen in Channel 2 was lysed with 10 μl of a 1:1 solution of Triton X-100 (final concentration 0.005%) 10 mM CaCl2 (final concentration 0.5 mM). Treated and control […] data were corrected for time dependent decay of fluorescence using data from the untreated lysed controls.
(§3) Normally 4 compound-treated samples (at 4 different concentrations) interspersed with 3 control samples were evaluated at 4.5 minute intervals starting 18-23 minutes after the DMSO treatment. The Ia50 values were calculated as described earlier. The compound concentrations effecting 50% inhibition (Ica50) of collagen-induced cytosolic ionized calcium values was determined by linear regression analysis.
Compounds I-rac, (+)-I,(IC) and (-)-I(IA) were evaluated. The Ia50 (collagen-induced aggregation) and Ica50 (compound concentration required to inhibit by 50% the collagen-induced rise in cytosolic ionized calcium)values determined with platelet suspensions in HEPES-buffered saline containing 1.0 mM CaCl2 were as follows: […]

[1] = tested on: cytosolic ionized calcium in human platelets; assay: Inhibition of collagen-induced rise in cytosolic ionized calcium (aequorin luminescence); settings: collagen-induced, 1mM [Ca2+]o (n = 4), read-out: Ica50 ± S.E. Collagen-induced (50% inhibition of collagen-induced rise in cytosolic ionized calcium)
Procedure: as §1, §2, §3
Compounds I-rac, (+)-I,(IC) and (-)-I(IA) were evaluated. The Ia50 (collagen-induced aggregation) and Ica50 (compound concentration required to inhibit by 50% the collagen-induced rise in cytosolic ionized calcium)values determined with platelet suspensions in HEPES-buffered saline containing 1.0 mM CaCl2 were as follows:
Collagen-stimulation of platelets suspended in media containing 1.0 mM of Ca^2+ (FIG. 13) or 1.0 mM (FIG. 14A) or 2.0 mM (FIG. 14B) EGTA (a calcium chelator) gave […] cytosolic ionized calcium peak (aequorin-indicated luminescence). Contrarily, two phases of Ca^2+ mobilization were observed when aequorin-loaded human platelets suspended in a medium containing 0.1 mM EGTA were stimulated with collagen (FIG. 14, designation D). The first corresponded to platelet shape change and the second peak to aggregation. […] The platelet suspension (1.0 ml) was pre-incubated with 1.0 μl of (A) 95% ethanol, (B) a solution of Compound I (14.59 μM) in 95% ethanol, or (C) a solution of Compound I (23.87 μM) in 95% ethanol. Collagen (20 μg) was added at time indicated by the arrows. Luminescence was again recorded at a gain of 0.5. […] Accordingly, the stereo-selective inhibitory properties of the compounds of the present invention appear to be mediated through the inhibition of [Ca^2+ ].

[2] = Homo sapiens, Platelet, racemic compounds, ADP-induced, read-out: IC50 (compound concentration which inhibits ADP-induced platelet aggregation by 50%) ± S.E.
[3] = Homo sapiens, Platelet, read-out: IC50 (compound concentration which inhibits ADP-induced platelet aggregation by 50%) ± S.E., racemic compounds, ADP-induced
[4] = Homo sapiens, Platelet, read-out: Ia50 ± S.E. ADP-induced, table 4, ADP-induced, 5 to 7 individual determinations
[5] = Homo sapiens, Platelet, read-out: Ia50 (compound concentrations affecting 50% inhibition of aggregation) ± S.E., Table II, ADP-induced, n = 5 for (0)I and 6 for all others
[6] = Homo sapiens, Platelet, read-out: Ia50 ± S.E. ADP-Induced, table 3, ADP-induced (n = 5-6)

CCN(CC)CC1CCCN(Cc2ccc(CN3CCCC(CN(CC)CC)C3)cc2)C1 (racemic) [Compound 4, α,α'-Bis[3-(N,N-diethylaminomethyl)-piperidino]-p-xylene tetrahydrochloride]
IC50 (human blood platelets; [2]): 156 ± 460 µM | IC50 (human blood platelets; Homo sapiens, Platelet, racemic compounds, C = IC50 × 10^-3, read-out: Log1/C (converted)): 1570 µM

O=C(NCc1ccccc1)C1CCCN(Cc2ccc(CN3CCCC(C(=O)NCc4ccccc4)C3)cc2)C1 (racemic) [Compound 5, α,α'-Bis[3-(N-benzylcarbamoyl)piperidino]p-xylene dihydrobromide]
IC50 (human blood platelets; [2]): 53.6 ± 5.3 µM

CCN(Cc1ccccc1)C(=O)C1CCCN(Cc2ccc(CN3CCCC(C(=O)N(CC)Cc4ccccc4)C3)cc2)C1 (racemic) [Compound 6, α,α'-Bis[3-(N-benzyl-N-ethylcarbamoyl)piperidino]-p-xylene dihydrobromide]
IC50 (human blood platelets; [2]): 37.7 ± 4.6 µM

CCCN(Cc1ccccc1)C(=O)C1CCCN(Cc2ccc(CN3CCCC(C(=O)N(CCC)Cc4ccccc4)C3)cc2)C1 (racemic) [Compound 7, α,α'-Bis[3-(N-benzyl-N-propylcarbamoyl)piperidino]p-xylene dihydrobromide]
IC50 (human blood platelets; [2]): 72.9 ± 20.8 µM

O=C(C1CCCN(Cc2ccc(CN3CCCC(C(=O)N(Cc4ccccc4)Cc4ccccc4)C3)cc2)C1)N(Cc1ccccc1)Cc1ccccc1 (racemic) [Compound 8, α,α'-Bis[3-(N,N-dibenzylcarbamoyl)piperidino] p-xYlene dihydrobromide]
IC50 (human blood platelets; [2]): 303 ± 60.8 µM

O=C(C1CCCN(Cc2ccc(CN3CCCC(C(=O)N4CCCCC4)C3)cc2)C1)N1CCCCC1 (racemic) [Compound 10, α,α'-Bis[3-(piperidinocarbonyl)piperidino] p-xylene dihydrobromide]
IC50 (human blood platelets; Homo sapiens, Platelet, table 4, ADP-induced, 5 to 7 individual determinations, read-out: Ia50 ± S.E. ADP-induced): 28.9 ± 8.96 µM

CN(Cc1ccccc1)C(=O)C1CCCN(Cc2ccc(CN3CCCC(C(=O)N(C)Cc4ccccc4)C3)cc2)C1 (racemic) [Compound 13c, α,α'-Bis[3-(N-benzyl-N-methylcarbamoyl)piperidino]p-xylene]
IC50 (human blood platelets; [3]): 27.3 ± 3.2 µM | IC50 (human blood platelets; [4]): 27.3 ± 3.23 µM

CN(Cc1ccccc1)C(=O)C1CCCN(Cc2ccc(CN3CCCC(C(=O)N(C)Cc4ccccc4)C3)cc2)C1 (single isomer, unassigned) [Compound 13c-A]
IC50 (human blood platelets; read-out: Ia50 ± S.E. ADP-induced, table 4, ADP-induced, 5 to 7 individual determinations, listed as 13c-A(-)): 57.4 ± 6.01 µM

CN(Cc1ccccc1)C(=O)C1CCCN(Cc2ccc(CN3CCCC(C(=O)N(C)Cc4ccccc4)C3)cc2)C1 (single isomer, unassigned) [Compound 13c-C]
IC50 (human blood platelets; read-out: Ia50 ± S.E. ADP-induced, table 4, ADP-induced, 5 to 7 individual determinations, listed as 13c-C(+)): 9.55 ± 1.47 µM

CCN(CC)C(=O)C1CCCN(Cc2ccc(CN3CCCC(C(=O)N(CC)CC)C3)cc2)C1 (single isomer, unassigned) [IA]
IC50 (human blood platelets; [5]): 233 ± 52.1 µM | IC50 (human blood platelets; [6]): 233 µM | IC50 (human platelets): 199 µM | IC50 ([1]; listed as IA (-)-I): 171 µM

CN(C)CCCN1c2ccccc2Sc2ccc(Cl)cc21 [Chlorpromazine, reference compound]
IC50 (human blood platelets; [5]): 156 ± 25.5 µM

CCCCN(C)C(=O)C1CCCN(Cc2ccc(CN3CCCC(C(=O)N(C)CCCC)C3)cc2)C1 (stereo not drawn) [Compound 9, α,α'-Bis[3-(N-methyle-N-butylcarbamoyl)piperidino] p-xylene dihydrobromide]
IC50 (human blood platelets; [3]): 22.1 ± 5.5 µM

CN(Cc1ccccc1)C(=O)[C@@H]1CCCN(Cc2ccc(CN3CCC[C@H](C(=O)N(C)Cc4ccccc4)C3)cc2)C1 [Compound 13c-B]
IC50 (human blood platelets; [4]): 46.9 ± 8.37 µM

CCN(CC)C(=O)[C@@H]1CCCN(Cc2ccc(CN3CCC[C@H](C(=O)N(CC)CC)C3)cc2)C1 [IB]
IC50 (human blood platelets; [5]): 41.4 ± 11.8 µM | IC50 (human blood platelets; [6]): 41.4 µM | IC50 (human platelets): 65.7 µM | IC50 ([1]; Homo sapiens, Platelet): 24.3 µM

CN1CCN(CCCN2c3ccccc3Sc3ccc(C(F)(F)F)cc32)CC1 [Trifluoperazine, reference compound]
IC50 (human blood platelets; Homo sapiens, Platelet, Table II, ADP-induced, n = 5 for (0)I and 6 for all others, read-out: Ia50 (compound concentrations affecting 50% inhibition of aggregation) ± S.E.): 202 ± 21.9 µM
